Our source for the IC50 values is patent US20100120762A1, “Triazine derivatives as inhibitors of phosphodiesterases” (WYETH, priority 2008, published 2010).

In general, IC50 refers to the concentration that gives 50% inhibition.

The target of one assay is T1, PDE10A1 (AB 020593) (Homo sapiens, UniProt Q9Y233).
T1 construct: made in house; host or cells: baculovirus / SF21 insect cells (gene synthesized by Entelechon GmbH)
Description: Inhibition of recombinant PDE10A (baculovirus/SF21 system). It counts as biochemical. As to conditions: recombinant cytosolic PDE10A, 0.1 μM [3H]-cAMP, 37° C., 30 minutes, SPA; read-out: PDE10A IC50. As to the method: The DNA of PDE10A1 (AB 020593, 2340 bp) was synthesized and cloned into the vector pCR4.TOPO (Entelechon GmbH, Regensburg, Germany). The gene was than inserted into a baculovirus vector, ligated with the baculovirus DNA. The enzyme-protein was expressed in SF21-cells. The enzyme was isolated from these cells by harvesting the cells by an centrifugation at 500 g to collect the cells.
The cells were resuspended in 50 mM Tris-HCl/1 mM EDTA/250 mM Sucrose buffer, pH=7.4 (Sigma, Deisenhofen, Germany; Merck, Darmstadt, Germany) and lysed by sonification of the cells (three times for 15 seconds, Labsonic U, Fa. Braun, Degersheim, Switzerland, level “high”). The cytosolic PDE10A was obtained by a centrifugation at 48,000 g for 1 h in the supernatant and stored at −70° C.
PDE activity was determined in a one step procedure in microtiter plates. The reaction mixture of 100 μl contained 50 mM Tris-HCl/5 mM MgCl2 buffer (pH=7.4, Sigma, Deisenhofen, Germany; Merck, Darmstadt, Germany) 0.1 μM [3H]-cAMP (Amersham, Buckinghamshire, UK) and the enzyme. Non-specific enzyme activity was determined without the enzyme. The reaction was initiated by addition of the substrate solution and was carried out at 37° C. for 30 minutes. Enzymatic activity then was stopped by addition of 25 μl Ysi-SPA-beads (Amersham-Pharmacia). One h later the mixture was measured in a liquid scintillation counter for microtiter plates (Microbeta Trilux). The Biomek 2000 (Beckman) was used routinely for pipetting of the incubation mixture. The optimal amount of enzyme in the assay has been determined and optimized for each enzyme preparation separately before using the enzyme in compound testing. For determination of IC50 values the Hill-plot, 2-parameter-model, was used.

The next assay concerns the target T2, PDE2A (NM002599) (Homo sapiens, UniProt O00408).
T2 construct: made in house; host or cells: baculovirus / SF21 insect cells
Description: Inhibition of recombinant PDE2A (expressed in baculovirus/SF21-cells). It counts as biochemical. Particulars: recombinant PDE2A, 0.5 μM [3H]-cAMP, 1000 nM cGMP, 37° C., 30 minutes, SPA; read-out: PDE2A IC50. As to the method: PDE2A (NM002599) was cloned and the gene was inserted in the baculovirus and the enzyme-protein expressed in SF21-cells. The enzyme was isolated from these cells by harvesting the cells by an centrifugation at 200 g to collect the cells. The cells were resuspended in 50 mM Tris-HCl/5 mM MgCl2 buffer (pH=7.4) (Sigma, Deisenhofen, Germany; Merck, Darmstadt, Germany) and lysed by a sonication of the cells (three times for 15 seconds, Labsonic U, Fa. Braun, Degersheim, Switzerland, level “high”). The membrane fraction of PDE2A was obtained by a centrifugation at 48 000 g for 1 h, resuspended in buffer and stored at −70° C.
PDE2A activity was determined in a one step procedure in microtiterplates. The reaction mixture of 100 μl contained 50 mM Tris-HCl/5 mM MgCl2 buffer (pH=7.4) (Sigma, Deisenhofen, Germany; Merck, Darmstadt, Germany), 0.5 μM [3H]-cAMP (Amersham, Buckinghamshire, UK), 1000 nM cGMP and the enzyme. Non-specific enzyme activity was tested in the absence of cGMP. The reaction was initiated by addition of the substrate solution and was carried out at 37° C. for 30 minutes. Enzymatic activity then was stopped by addition of 25 μl SPA-beads (Amersham-Pharmacia). One hour later the mixture was measured in a liquid scintillation counter for microtiterplates (Microbeta Trilux). For pipetting of the incubation mixture the robot Biomek (Fa. Beckman) was routinely used.
The optimal amount of enzyme in the assay has been determined and optimised for each enzyme preparation separately before using the enzyme in compound testing. For determination of IC50 values the Hill-plot, 2-parameter-model, was used.

T1 sequence (Q9Y233 other isoform, or with tags, fused parts or gaps): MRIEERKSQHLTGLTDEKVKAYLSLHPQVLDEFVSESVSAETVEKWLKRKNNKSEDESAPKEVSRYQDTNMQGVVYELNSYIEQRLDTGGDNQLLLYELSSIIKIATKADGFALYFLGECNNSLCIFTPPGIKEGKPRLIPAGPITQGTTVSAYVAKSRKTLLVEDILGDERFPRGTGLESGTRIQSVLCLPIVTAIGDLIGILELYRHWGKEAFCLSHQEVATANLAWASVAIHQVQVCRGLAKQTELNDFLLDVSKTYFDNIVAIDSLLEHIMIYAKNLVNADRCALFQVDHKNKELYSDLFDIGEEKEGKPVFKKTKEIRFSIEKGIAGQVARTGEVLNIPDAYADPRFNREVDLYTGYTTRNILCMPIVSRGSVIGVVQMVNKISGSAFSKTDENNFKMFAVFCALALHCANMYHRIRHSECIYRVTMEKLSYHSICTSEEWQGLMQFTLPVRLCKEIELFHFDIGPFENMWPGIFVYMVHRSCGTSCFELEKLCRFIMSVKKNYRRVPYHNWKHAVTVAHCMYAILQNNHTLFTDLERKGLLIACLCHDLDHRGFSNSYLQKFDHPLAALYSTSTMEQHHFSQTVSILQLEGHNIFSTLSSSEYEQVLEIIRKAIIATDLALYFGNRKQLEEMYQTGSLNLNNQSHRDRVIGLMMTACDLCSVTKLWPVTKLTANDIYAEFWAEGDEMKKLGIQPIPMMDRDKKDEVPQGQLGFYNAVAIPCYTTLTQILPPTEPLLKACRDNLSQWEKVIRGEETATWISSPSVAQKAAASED
T2 sequence (O00408 whole entry): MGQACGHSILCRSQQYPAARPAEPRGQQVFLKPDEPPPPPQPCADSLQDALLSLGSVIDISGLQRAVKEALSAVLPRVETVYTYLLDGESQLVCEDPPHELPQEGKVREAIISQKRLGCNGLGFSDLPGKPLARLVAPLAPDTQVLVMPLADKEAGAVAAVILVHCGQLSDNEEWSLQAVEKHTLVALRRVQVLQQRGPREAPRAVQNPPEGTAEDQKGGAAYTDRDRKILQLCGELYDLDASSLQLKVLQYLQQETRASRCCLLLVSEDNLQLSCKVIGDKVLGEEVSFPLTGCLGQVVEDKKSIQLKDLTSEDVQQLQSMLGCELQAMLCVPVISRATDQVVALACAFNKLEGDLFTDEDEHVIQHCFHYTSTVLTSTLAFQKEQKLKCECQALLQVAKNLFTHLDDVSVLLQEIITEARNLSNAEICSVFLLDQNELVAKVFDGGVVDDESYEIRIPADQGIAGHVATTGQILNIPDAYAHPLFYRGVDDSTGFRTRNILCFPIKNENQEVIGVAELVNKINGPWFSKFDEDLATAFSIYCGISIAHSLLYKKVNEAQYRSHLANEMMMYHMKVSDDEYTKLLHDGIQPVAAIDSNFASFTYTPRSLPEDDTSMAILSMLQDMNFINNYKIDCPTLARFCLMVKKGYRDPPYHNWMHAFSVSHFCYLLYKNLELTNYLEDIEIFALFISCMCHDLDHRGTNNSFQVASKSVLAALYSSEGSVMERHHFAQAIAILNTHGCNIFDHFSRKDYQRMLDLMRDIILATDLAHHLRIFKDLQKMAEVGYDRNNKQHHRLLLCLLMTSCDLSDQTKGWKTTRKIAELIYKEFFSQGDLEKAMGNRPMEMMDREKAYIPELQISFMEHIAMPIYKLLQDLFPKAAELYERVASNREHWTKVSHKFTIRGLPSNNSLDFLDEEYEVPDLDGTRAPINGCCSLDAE

`COc1ccc2nnc3c(C)nc(-c4cccnc4OC)n3c2n1` [Example 32, 2-methoxy-9-(2-methoxypyridin-3-yl)-7-methylimidazo[5,1-c]pyrido[2,3-e][1,2,4]triazine]: the IC50 at PDE10A1 (AB 020593) was 209 nM; on PDE2A (NM002599), 188 nM.
The like results for `COc1ccc2nnc3c(C)nc(-c4cncc(C)c4)n3c2n1` [Example 33, 2-methoxy-7-methyl-9-(5-methylpyridin-3-yl)imidazo[5,1-c]pyrido[2,3-e][1,2,4]triazine] were, in that order, 51.5 nM and 14.4 nM.
The like results for `COc1ccc2nnc3c(C)nc(-c4ccnc(C)c4)n3c2n1` [Example 34, 2-methoxy-7-methyl-9-(2-methylpyridin-4-yl)imidazo[5,1-c]pyrido[2,3-e][1,2,4]triazine] were, in that order, 270 nM and 421 nM.
The like results for `CCc1ccccc1-c1nc(C)c2nnc3ccc(OC)nc3n12` [Example 35, 9-(2-ethylphenyl)-2-methoxy-7-methylimidazo[5,1-c]pyrido[2,3-e][1,2,4]triazine] were, in that order, 59.4 nM and 41.6 nM.
Regarding `CCOc1cccc(-c2nc(C)c3nnc4ccc(OC)nc4n23)c1` [Example 36, 9-(3-ethoxyphenyl)-2-methoxy-7-methylimidazo[5,1-c]pyrido[2,3-e][1,2,4]triazine], the IC50 on PDE10A1 (AB 020593) was 303 nM; on PDE2A (NM002599) it was 148 nM.
On the same counts, the results for `COc1ccc2nnc3c(C)nc(-c4cccc(OC)c4OC)n3c2n1` [Example 37, 9-(2,3-dimethoxyphenyl)-2-methoxy-7-methylimidazo[5,1-c]pyrido[2,3-e][1,2,4]triazine] are 146 nM and 274 nM.
On to `CCOc1cccc(-c2nc(C)c3nnc4ccc(OC)nc4n23)c1F` [Example 38, 9-(3-ethoxy-2-fluorophenyl)-2-methoxy-7-methylimidazo[5,1-c]pyrido[2,3-e][1,2,4]triazine], for which the IC50 on PDE10A1 (AB 020593) came out at 617 nM; on PDE2A (NM002599), 243 nM.
Regarding `COc1ccc2nnc3c(C)nc(-c4cccc(OC)c4Cl)n3c2n1` [Example 39, 9-(2-chloro-3-methoxyphenyl)-2-methoxy-7-methylimidazo[5,1-c]pyrido[2,3-e][1,2,4]triazine], the values for the IC50 at PDE10A1 (AB 020593) and on PDE2A (NM002599) were 115 nM and 111 nM, respectively.
Take `COc1cncc(-c2nc(C)c3nnc4ccc(OC)nc4n23)c1` [Example 40, 2-methoxy-9-(5-methoxypyridin-3-yl)-7-methylimidazo[5,1-c]pyrido[2,3-e][1,2,4]triazine]: the IC50 on PDE10A1 (AB 020593) stood at 91.3 nM; at PDE2A (NM002599) it was 14 nM.
On the same counts, the results for `COc1ccc2nnc3c(C)nc(-c4cc(Cl)cnc4OC)n3c2n1` [Example 41, 9-(5-chloro-2-methoxypyridin-3-yl)-2-methoxy-7-methylimidazo[5,1-c]pyrido[2,3-e][1,2,4]triazine] are 291 nM and 54.3 nM.
Turning to `COc1ccc2nnc3c(C)nc(-c4cccnc4OC(C)C)n3c2n1` [Example 42, 2-methoxy-7-methyl-9-[2-(1-methylethoxy)pyridin-3-yl]imidazo[5,1-c]pyrido[2,3-e][1,2,4]triazine], the results for the IC50 on PDE10A1 (AB 020593) and at PDE2A (NM002599) were less than 5000 nM and 751 nM, respectively.
The like results for `COc1ccc2nnc3c(C)nc(-c4cncc(F)c4)n3c2n1` [Example 43, 9-(5-fluoropyridin-3-yl)-2-methoxy-7-methylimidazo[5,1-c]pyrido[2,3-e][1,2,4]triazine] were, in that order, 367 nM and 272 nM.
On the same counts, the results for `COc1ccc2nnc3c(C)nc(-c4ccncc4)n3c2n1` [Example 44, 2-methoxy-7-methyl-9-pyridin-4-ylimidazo[5,1-c]pyrido[2,3-e][1,2,4]triazine] are 348 nM and 477 nM.
On to `COc1ccc2nnc3c(C)nc(-c4ccncc4Cl)n3c2n1` [Example 45, 9-(3-chloropyridin-4-yl)-2-methoxy-7-methylimidazo[5,1-c]pyrido[2,3-e][1,2,4]triazine], for which the values for the IC50 on PDE10A1 (AB 020593) and on PDE2A (NM002599) were 36.9 nM and 31.7 nM, respectively.
On the same counts, the results for `COc1cc(-c2nc(C)c3nnc4ccc(OC)nc4n23)c(Cl)cn1` [Example 46, 9-(5-chloro-2-methoxypyridin-4-yl)-2-methoxy-7-methylimidazo[5,1-c]pyrido[2,3-e][1,2,4]triazine] are 191 nM and 70.1 nM.
For `COc1ccc2nnc3c(C)nc(-c4cnccc4OC)n3c2n1` [Example 47, 2-methoxy-9-(4-methoxypyridin-3-yl)-7-methylimidazo[5,1-c]pyrido[2,3-e][1,2,4]triazine], the IC50 on PDE10A1 (AB 020593) was 178 nM; on PDE2A (NM002599), 69.4 nM.
In the case of `COc1ccc2nnc3c(C)nc(-c4ccc5nccn5c4)n3c2n1` [Example 48, 9-imidazo[1,2-a]pyridin-6-yl-2-methoxy-7-methylimidazo[5,1-c]pyrido[2,3-e][1,2,4]triazine], the IC50 at PDE10A1 (AB 020593) was 260 nM; at PDE2A (NM002599), 550 nM.
On the same counts, the results for `COc1ccc2nnc3c(C)nc(-c4cc(C(C)=O)ccc4Cl)n3c2n1` [Example 49, 1-[4-chloro-3-(2-methoxy-7-methylimidazo[5,1-c]pyrido[2,3-e][1,2,4]triazin-9-yl)phenyl]ethanone] are 403 nM and 27.5 nM.
Regarding `COc1ccc2nnc3c(C)nc(-c4cccnc4C)n3c2n1` [Example 50, 2-methoxy-7-methyl-9-(2-methylpyridin-3-yl)imidazo[5,1-c]pyrido[2,3-e][1,2,4]triazine], the IC50 at PDE10A1 (AB 020593) stood at 126 nM; on PDE2A (NM002599), 15.9 nM.
As for `COc1ccc2nnc3c(C)nc(-c4cnccc4C)n3c2n1` [Example 51, 2-methoxy-7-methyl-9-(4-methylpyridin-3-yl)imidazo[5,1-c]pyrido[2,3-e][1,2,4]triazine], the IC50 came out at 388 nM at PDE10A1 (AB 020593) and 142 nM on PDE2A (NM002599).
As to `COc1ccc2nnc3c(C)nc(-c4ccncc4OC)n3c2n1` [Example 52, 2-methoxy-9-(3-methoxypyridin-4-yl)-7-methylimidazo[5,1-c]pyrido[2,3-e][1,2,4]triazine], the 50% inhibitory concentration (IC50) at PDE10A1 (AB 020593) came out at 225 nM; on PDE2A (NM002599), 165 nM.
Regarding `COc1ccc2nnc3c(C)nc(-c4cccnc4F)n3c2n1` [Example 53, 9-(2-fluoropyridin-3-yl)-2-methoxy-7-methylimidazo[5,1-c]pyrido[2,3-e][1,2,4]triazine], the IC50 at PDE10A1 (AB 020593) came to 147 nM; at PDE2A (NM002599), 29.6 nM.
As to `COc1ccc2nnc3c(C)nc(-c4sc(C)nc4C)n3c2n1` [Example 54, 9-(2,4-dimethyl-1,3-thiazol-5-yl)-2-methoxy-7-methylimidazo[5,1-c]pyrido[2,3-e][1,2,4]triazine], the IC50 was determined as 64.5 nM on PDE10A1 (AB 020593) and 23 nM on PDE2A (NM002599).
The like results for `COc1ccc2nnc3c(C)nc(-c4cccnc4)n3c2n1` [Example 55, 2-methoxy-7-methyl-9-pyridin-3-ylimidazo[5,1-c]pyrido[2,3-e][1,2,4]triazine] were, in that order, 682 nM and 144 nM.
`COc1ccc2nnc3c(C)nc(-c4cccc(F)c4C)n3c2n1` [Example 56, 9-(3-fluoro-2-methylphenyl)-2-methoxy-7-methylimidazo[5,1-c]pyrido[2,3-e][1,2,4]triazine]: the figures for the IC50 on PDE10A1 (AB 020593) and on PDE2A (NM002599) were 35.6 nM and 21.3 nM, respectively.
Take `COc1ccc2nnc3c(C)nc(-c4ccc(F)cc4C)n3c2n1` [Example 57, 9-(4-fluoro-2-methylphenyl)-2-methoxy-7-methylimidazo[5,1-c]pyrido[2,3-e][1,2,4]triazine]: the IC50 at PDE10A1 (AB 020593) was 64.4 nM; at PDE2A (NM002599) it was 21.2 nM.
